Data: patent US20140303246A1, “USE OF ADAMANTANE DERIVATIVES FOR THE TREATMENT OF ACTINIC KERATOSIS” (MERZ Pharma GmbH & Co. KGaA, priority 2011, published 2014)

Experiments:
[1] = Resazurin assay, viability of cells by metabolic activity; type: cell-based; details: human, primary human epidermal keratinocytes (NHEK), metabolic activity (Resazurin) as read-out, read-out: IC50 for the cytolytic/cytotoxic effect based on metabolic activity
Method: (§1) By using primary human epidermal keratinocytes (NHEK, FIG. 1) the cytolytic potential of several drug compound was investigated.
(§2) The viability of the cells was monitored by their metabolic activity using the Resazurin—assay. Eight different concentrations (up to 1 mM) of amantadine were investigated. Viability of the cells was plotted against the different concentration of test compound.
(§3) From the resulting sigmoid-curve the IC50 value for the cytolytic effect was determined and given in the respective figure. FIG. 1 depicts the relative viability vs. the concentration on NHEK cells using metabolic activity as read-out.
(§4) For each of these compounds, the same experiments were performed in an analogous fashion to the compound of Example 1 except that the test items were prepared in separate plates starting with the double concentrated maximal test concentration followed by a 1:3 serial dilution and then added to the cells. The test items were tested at 6 replicates/concentration. In addition to metabolic activity also the release of cytoplasmatic-lactate dehydrogenase (LDH) was used to monitor cell death. Early release (after 6 hrs) indicate membrane damage a primary mode of action

[2] = tested on: primary human epidermal keratinocytes (NHEK); assay: as above; type: cell-based
Method: as §1, §2, §3, §4

[3] = tested on: NHEK cells; assay: Release of cytoplasmatic lactate dehydrogenase (LDH) to monitor cell death / membrane damage; type: cell-based, human
Method: as §4

| Compound | IC50 [1] [µM] | cytotoxic effect (in words) [2] | LDH-release at 6 hrs (early membrane damage) [3] |
| --- | --- | --- | --- |
| CC12CC3CC(C)(C1)CC(N)(C3)C2 [Memantine, 3,5-dimethyladamantan-1-amine] | 330 | clear cytotoxic activity | early membrane damage |
| CC(N)C12CC3CC(CC(C3)C1)C2 (stereo not shown) [Rimantadine, 1-(1-adamantyl)ethanamine] | 660 | – | – |
